Measurements published in US20150197497A1, “SELECTIVE INHIBITORS OF HISTONE DEACETYLASE ISOFORM 6 AND METHODS THEREOF” (DANA-FARBER CANCER INSTITUTE, INC., priority 2011, published 2015).
pEC50, pIC50: −log10 of the molar value.

Key:
[1] = molecular target: T1, HDAC2 (Homo sapiens, UniProt Q92769); test: In vitro HDAC enzyme inhibition assay, HDAC2; format: biochemical; settings: for HDAC2/HDAC6 in vitro selectivity: ratio of IC50 for HDAC2 relative to that of HDAC6; for pIC50: recombinant full-length HDAC2, substrate MAZ1600 22 μM
T1 construct: Recombinant, full-length HDAC protein (BPS Biosciences) was incubated with fluorophore conjugated substrate; purchased BPS Biosciences
Procedure: (§1) In vitro Histone Deacetylase enzyme assays were performed using Class I (isoforms: HDAC1, HDAC2, HDAC3 and HDAC8), class IIa (isoforms: HDAC4, HDAC5, HDAC7 and HDAC9) and class IIb (isoform HDAC6).
(§2) HDAC activities were determined in vitro with an optimized homogenous assay performed in a 384-well plate. Recombinant, full-length HDAC protein (BPS Biosciences) was incubated with fluorophore conjugated substrate, MAZ1600 and MAZ1675, at Km=[S]. […] Reactions were performed in assay buffer (50 mM HEPES, 100 mM KCl, 0.001% Tween-20, 0.05% BSA, 200 μM tris(2-carboxyethyl)phosphine (TCEP), pH 7.4) and followed for fluorogenic release of 7-amino-4-methylcoumarin from substrate upon deacetylase and trypsin enzymatic activity. Fluorescence measurements were obtained every five minutes using a multilabel plate reader and plate-stacker (Envision; Perkin-Elmer). Each plate was analyzed by plate repeat, and the first derivative within the linear range was imported into analytical software (Spotfire DecisionSite and GraphPad Prism). Replicate experimental data from incubations with inhibitor were normalized to controls.

[2] = molecular target: T2, HDAC3 (Homo sapiens, UniProt O15379); test: In vitro HDAC enzyme inhibition assay, HDAC3; format: biochemical; settings: for HDAC3/HDAC6 in vitro selectivity: ratio of IC50 for HDAC3 relative to that of HDAC6; for pIC50: recombinant full-length HDAC3, substrate MAZ1600 9 μM
T2 construct: Recombinant, full-length HDAC protein (BPS Biosciences) was incubated with fluorophore conjugated substrate; purchased BPS Biosciences
Procedure: as §1, §2

[3] = molecular target: T3, HDAC7 (Homo sapiens, UniProt Q8WUI4); test: In vitro HDAC enzyme inhibition assay, HDAC7; format: biochemical; settings: for HDAC7/HDAC6 in vitro selectivity: ratio of IC50 for HDAC7 relative to that of HDAC6; for pIC50: recombinant full-length HDAC7, substrate MAZ1675 22 μM
T3 construct: Recombinant, full-length HDAC protein (BPS Biosciences) was incubated with fluorophore conjugated substrate; purchased BPS Biosciences
T3 sequence (Q8WUI4 1-952): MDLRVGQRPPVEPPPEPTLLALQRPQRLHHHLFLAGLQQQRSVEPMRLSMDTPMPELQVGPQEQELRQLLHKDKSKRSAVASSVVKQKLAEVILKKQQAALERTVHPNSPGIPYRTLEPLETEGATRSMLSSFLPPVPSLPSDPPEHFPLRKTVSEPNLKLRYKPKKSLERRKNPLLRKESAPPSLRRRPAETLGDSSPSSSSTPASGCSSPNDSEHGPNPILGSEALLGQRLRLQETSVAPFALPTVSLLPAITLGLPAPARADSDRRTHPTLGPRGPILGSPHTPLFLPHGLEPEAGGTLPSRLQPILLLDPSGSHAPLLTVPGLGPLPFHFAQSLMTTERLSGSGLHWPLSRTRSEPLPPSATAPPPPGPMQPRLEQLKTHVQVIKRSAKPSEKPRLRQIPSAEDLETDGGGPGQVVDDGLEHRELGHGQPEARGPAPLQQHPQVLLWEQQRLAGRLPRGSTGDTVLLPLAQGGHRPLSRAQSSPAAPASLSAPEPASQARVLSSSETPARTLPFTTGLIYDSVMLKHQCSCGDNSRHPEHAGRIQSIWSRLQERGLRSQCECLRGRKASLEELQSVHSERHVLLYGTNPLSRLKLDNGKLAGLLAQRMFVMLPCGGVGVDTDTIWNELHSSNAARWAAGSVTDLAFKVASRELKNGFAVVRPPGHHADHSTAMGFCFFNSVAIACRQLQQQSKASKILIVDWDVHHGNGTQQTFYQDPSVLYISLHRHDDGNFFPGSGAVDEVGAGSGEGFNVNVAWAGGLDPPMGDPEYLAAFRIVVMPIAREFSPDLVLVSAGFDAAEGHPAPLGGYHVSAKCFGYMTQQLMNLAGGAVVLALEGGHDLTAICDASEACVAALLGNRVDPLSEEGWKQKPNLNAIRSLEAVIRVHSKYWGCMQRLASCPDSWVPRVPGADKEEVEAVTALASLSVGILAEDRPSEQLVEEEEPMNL
Procedure: as §1, §2

[4] = molecular target: T4, HDAC8 (Homo sapiens, UniProt Q9BY41); test: In vitro HDAC enzyme inhibition assay, HDAC8; format: biochemical; settings: for HDAC8/HDAC6 in vitro selectivity: ratio of IC50 for HDAC8 relative to that of HDAC6; for pIC50: recombinant full-length HDAC8, substrate MAZ1675 282 μM
T4 construct: Recombinant, full-length HDAC protein (BPS Biosciences) was incubated with fluorophore conjugated substrate; purchased BPS Biosciences
T4 sequence (Q9BY41 1-377): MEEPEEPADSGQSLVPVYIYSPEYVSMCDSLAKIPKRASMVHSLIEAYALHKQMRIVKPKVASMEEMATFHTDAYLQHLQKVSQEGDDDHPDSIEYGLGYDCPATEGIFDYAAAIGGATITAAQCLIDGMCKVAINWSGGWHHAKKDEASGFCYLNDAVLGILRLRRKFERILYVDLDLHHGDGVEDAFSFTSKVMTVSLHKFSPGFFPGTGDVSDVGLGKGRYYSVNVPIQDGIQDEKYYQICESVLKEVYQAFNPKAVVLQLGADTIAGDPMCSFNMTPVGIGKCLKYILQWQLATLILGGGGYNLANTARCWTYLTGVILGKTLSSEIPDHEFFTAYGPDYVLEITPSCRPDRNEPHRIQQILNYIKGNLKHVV
Procedure: as §1, §2

[5] = molecular target: T5, HDAC9 (Homo sapiens, UniProt Q9UKV0); test: In vitro HDAC enzyme inhibition assay, HDAC9; format: biochemical; settings: for HDAC9/HDAC6 in vitro selectivity: ratio of IC50 for HDAC9 relative to that of HDAC6; for pIC50: recombinant full-length HDAC9, substrate MAZ1675 26 μM; for selectivity toward HDAC6 compared to HDAC9 (in words): tested in vitro
T5 construct: Recombinant, full-length HDAC protein (BPS Biosciences) was incubated with fluorophore conjugated substrate; purchased BPS Biosciences
Procedure: as §1, §2

[6] = test system: acetylated tubulin; test: High-content image analysis of induction of acetylated tubulin in A549 cells; settings: for levels of acetylated tubulin, dose response (in words) / AcHistone/AcTubulin in cell selectivity toward HDAC6: A549 cells; for levels of acetylated tubulin, dose response (in words): FIG. 11; for pEC50: Homo sapiens, A549, 8 h, read-out: EC50 for half-maximal induction of acetylated tubulin (AcTubulin); for AcHistone/AcTubulin in cell selectivity toward HDAC6: ratio of EC50 acetylated histone to EC50 acetylated tubulin
Procedure: Cells were treated with each test HDACi compound with an automated pin transfer instrument (Janus, Perkin Elmer) and incubated for 8 hours. […] Fixation solution was aspirated and 90 μL of washing solution (0.1% Triton X-100 in PBS) was added prior to 10 minute incubation at 4° C. Washing solution was aspirated and cells were incubated at 4° C. for about 1 hour in blocking solution (0.1% Triton X-100+2% BSA in PBS). Washing solution was aspirated, and cells were incubated for about 1 hour at 4° C. in primary antibody for acetylated-tubulin (Sigma T7451) and acetylated-histone (Cell Signaling #9441L) at a 1:1000 dilution in blocking solution. Primary antibody solution was aspirated, and cells were washed three times in 90 μL of washing solution. […] Secondary antibody and nuclear staining solution was aspirated and cells were washed three times in 90 μL of washing solution. After the third wash, 50 μL of PBS was added to each well. Image acquisition was done on a high content imaging microscope (ImageXpress Micro, Molecular Devices), and image analysis (MetaXpress, Molecular Devices) was performed to obtain average acetylated-tubulin and acetylated-histone signal per cell based on treatment. Replicate experimental data from incubations with inhibitor were normalized to DMSO controls.

T5 sequence (Q9UKV0 whole entry): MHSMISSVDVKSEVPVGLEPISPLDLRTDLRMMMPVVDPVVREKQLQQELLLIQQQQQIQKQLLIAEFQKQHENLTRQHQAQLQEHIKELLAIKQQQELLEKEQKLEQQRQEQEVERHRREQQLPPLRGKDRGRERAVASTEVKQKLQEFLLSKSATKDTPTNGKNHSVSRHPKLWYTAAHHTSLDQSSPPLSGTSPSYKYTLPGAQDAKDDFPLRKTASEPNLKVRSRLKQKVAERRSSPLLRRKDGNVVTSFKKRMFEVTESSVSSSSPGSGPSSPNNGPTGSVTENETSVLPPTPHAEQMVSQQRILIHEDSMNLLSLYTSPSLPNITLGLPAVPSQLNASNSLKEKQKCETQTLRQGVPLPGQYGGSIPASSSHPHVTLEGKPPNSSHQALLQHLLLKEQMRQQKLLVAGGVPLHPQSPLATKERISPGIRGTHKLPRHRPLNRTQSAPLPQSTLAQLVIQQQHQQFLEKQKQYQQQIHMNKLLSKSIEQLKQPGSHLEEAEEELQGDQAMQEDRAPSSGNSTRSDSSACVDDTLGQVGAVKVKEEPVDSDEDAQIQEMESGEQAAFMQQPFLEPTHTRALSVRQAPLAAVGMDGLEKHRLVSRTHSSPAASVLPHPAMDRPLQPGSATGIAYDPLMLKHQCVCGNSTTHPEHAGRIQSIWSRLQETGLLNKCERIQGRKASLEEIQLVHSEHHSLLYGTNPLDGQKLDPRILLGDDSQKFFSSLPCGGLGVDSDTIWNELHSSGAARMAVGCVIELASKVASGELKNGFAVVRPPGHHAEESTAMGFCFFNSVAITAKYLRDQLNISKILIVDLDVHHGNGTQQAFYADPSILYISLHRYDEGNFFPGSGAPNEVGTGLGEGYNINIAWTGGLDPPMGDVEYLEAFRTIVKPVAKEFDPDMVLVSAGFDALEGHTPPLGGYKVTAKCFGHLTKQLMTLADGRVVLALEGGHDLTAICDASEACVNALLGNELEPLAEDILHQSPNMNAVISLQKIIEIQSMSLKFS
T2 sequence (O15379 whole entry): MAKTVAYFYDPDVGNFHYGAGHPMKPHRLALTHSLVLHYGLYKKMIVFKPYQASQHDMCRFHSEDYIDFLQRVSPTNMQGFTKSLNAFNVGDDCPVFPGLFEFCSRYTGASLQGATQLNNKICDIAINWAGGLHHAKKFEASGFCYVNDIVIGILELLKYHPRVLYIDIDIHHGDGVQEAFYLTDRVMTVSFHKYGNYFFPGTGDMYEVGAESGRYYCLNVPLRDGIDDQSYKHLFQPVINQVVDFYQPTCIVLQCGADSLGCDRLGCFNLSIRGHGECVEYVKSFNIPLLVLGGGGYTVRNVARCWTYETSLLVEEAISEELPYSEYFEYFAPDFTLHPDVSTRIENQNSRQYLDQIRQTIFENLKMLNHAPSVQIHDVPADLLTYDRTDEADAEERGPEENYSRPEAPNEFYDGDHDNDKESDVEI
T2 sequence (Q9Y618 395-489 partner limits assumed): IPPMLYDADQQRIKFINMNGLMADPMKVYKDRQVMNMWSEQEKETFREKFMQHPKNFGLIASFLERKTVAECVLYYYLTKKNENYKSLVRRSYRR
T1 sequence (Q92769 whole entry): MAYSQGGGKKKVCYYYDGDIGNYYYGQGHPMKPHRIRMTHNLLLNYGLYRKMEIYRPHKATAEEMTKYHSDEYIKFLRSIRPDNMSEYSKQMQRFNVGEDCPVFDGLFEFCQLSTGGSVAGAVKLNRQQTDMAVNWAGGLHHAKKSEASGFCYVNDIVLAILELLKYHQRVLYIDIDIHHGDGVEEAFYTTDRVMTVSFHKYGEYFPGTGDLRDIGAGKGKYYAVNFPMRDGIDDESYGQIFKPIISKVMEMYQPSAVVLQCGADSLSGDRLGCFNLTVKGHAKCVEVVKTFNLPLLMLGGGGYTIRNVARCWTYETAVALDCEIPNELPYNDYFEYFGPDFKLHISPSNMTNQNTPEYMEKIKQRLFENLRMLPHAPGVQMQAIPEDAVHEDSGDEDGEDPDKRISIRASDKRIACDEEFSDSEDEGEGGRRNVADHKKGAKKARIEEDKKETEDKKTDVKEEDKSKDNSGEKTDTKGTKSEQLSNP

SMILES	HDAC2/HDAC6 in vitro selectivity [1]	pIC50 [1]	HDAC3/HDAC6 in vitro selectivity [2]	pIC50 [2]	HDAC7/HDAC6 in vitro selectivity [3]	pIC50 [3]	HDAC8/HDAC6 in vitro selectivity [4]	pIC50 [4]	HDAC9/HDAC6 in vitro selectivity [5]	pIC50 [5]	selectivity toward HDAC6 compared to HDAC9 (in words) [5]	levels of acetylated tubulin, dose response (in words) [6]	pEC50 [6]	AcHistone/AcTubulin in cell selectivity toward HDAC6 [6]
O=C(NO)c1ccc(Cn2c(=O)[nH]c3cc(C(F)(F)F)ccc32)cc1 [B6, N-hydroxy-4-((2-oxo-5-(trifluoromethyl)-2,3-dihydro-1H-benzo[d]imidazol-1-yl)methyl)benzamide]	1754	7.96	2366	7.83	38222	6.62	48637	6.52	114680	6.15	exceptionally high selectivity (Inhibitors with in vitro selectivity values for HDAC6 of at least 30,000 are considered to have exceptionally high selectivity toward HDAC6)	dose-dependent increase	7.31	12.98
O=C(NO)c1ccc(Cn2c(=O)[nH]c3cc(F)ccc32)cc1 [B3, 4-((5-fluoro-2-oxo-2,3-dihydro-1H-benzo[d]imidazol-1-yl)methyl)N-hydroxybenzamide]	3002	7.19	6307	6.87	17021	6.44	12899	6.56	66950	5.84	exceptionally high selectivity (Inhibitors with in vitro selectivity values for HDAC6 of at least 30,000 are considered to have exceptionally high selectivity toward HDAC6)		7.15	21.1
O=C(NO)c1ccc(Cn2c(C(F)(F)F)nc3cc(Cl)ccc32)cc1 [A4, 4-((5-chloro-2-(trifluoromethyl)-1H-benzo[d]imidazol-1-yl)methyl)-N-hydroxybenzamide]	259	6.52	1096	5.90	323	6.43	1240	5.84	943	5.96		dose-dependent increase	6.56	54.11
O=C(NO)c1ccc(Cn2c(=O)[nH]c3cc(Br)ccc32)cc1 [B5, 4-((5-bromo-2-oxo-2,3-dihydro-1H-benzo[d]imidazol-1-yl)methyl)-N-hydroxybenzamide]	444	8.04	495	7.99	9297	6.72	12655	6.59	39480	6.09	exceptionally high selectivity (Inhibitors with in vitro selectivity values for HDAC6 of at least 30,000 are considered to have exceptionally high selectivity toward HDAC6)		6.88	6.398
